#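 Cells were grown in 96-well plates and exposed to each compound for 48 hours at five concentrations; endpoints were interpolated linearly between bracketing concentrations, or set to the highest concentration if not reached. TGI denotes the concentration required for complete inhibition of growth.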
# Legend:
# Experiment in all cases: inhibition of tumour cell growth, NCI panel, 48 h
# SK-OV-3 ovarian = tested on: SK-OV-3 ovarian
# ACHN renal = tested on: ACHN renal
# HT29 colon = tested on: HT29 colon
# XF 498 CNS = tested on: XF 498 CNS
# CCRF-CEM leukemia = tested on: CCRF-CEM leukemia
# SNB-19 CNS = tested on: SNB-19 CNS
# SNB-78 CNS = tested on: SNB-78 CNS
# MOLT-4 leukemia = tested on: MOLT-4 leukemia
# M19-MEL melanoma = tested on: M19-MEL melanoma
# SR leukemia = tested on: SR leukemia
# SF-268 CNS = tested on: SF-268 CNS
# UACC-62 melanoma = tested on: UACC-62 melanoma
# SK-MEL-5 melanoma = tested on: SK-MEL-5 melanoma
# NCI-H23 lung = tested on: NCI-H23 lung
# SW-620 colon = tested on: SW-620 colon
# OVCAR-5 ovarian = tested on: OVCAR-5 ovarian
# UO-31 renal = tested on: UO-31 renal
# SK-MEL-28 melanoma = tested on: SK-MEL-28 melanoma
# HCT-116 colon = tested on: HCT-116 colon
# OVCAR-8 ovarian = tested on: OVCAR-8 ovarian
# COLO 205 colon = tested on: COLO 205 colon
# K-562 leukemia = tested on: K-562 leukemia
# DMS 273 small cell lung = tested on: DMS 273 small cell lung
# 786-0 renal = tested on: 786-0 renal
# SN12C renal = tested on: SN12C renal
# SF-539 CNS = tested on: SF-539 CNS
# DLD-1 colon = tested on: DLD-1 colon
# LOX IMVI melanoma = tested on: LOX IMVI melanoma
# HCT-15 colon = tested on: HCT-15 colon
# RPMI-8226 leukemia = tested on: RPMI-8226 leukemia
# KM20L2 colon = tested on: KM20L2 colon
# EKVX NSCLC = tested on: EKVX NSCLC
# SNB-75 CNS = tested on: SNB-75 CNS
# NCI-H226 lung = tested on: NCI-H226 lung
# TK-10 renal = tested on: TK-10 renal
# LXFL 529 NSCLC = tested on: LXFL 529 NSCLC
# UACC-257 melanoma = tested on: UACC-257 melanoma
# U251 CNS = tested on: U251 CNS
# HCC-2998 colon = tested on: HCC-2998 colon
# IGROV1 ovarian = tested on: IGROV1 ovarian
# HL-60(TB) leukemia = tested on: HL-60(TB) leukemia
# A549 NSCLC = tested on: A549 NSCLC
# OVCAR-4 ovarian = tested on: OVCAR-4 ovarian
# RXF 393 renal = tested on: RXF 393 renal
# M14 melanoma = tested on: M14 melanoma
# HOP-62 NSCLC = tested on: HOP-62 NSCLC
# KM12 colon = tested on: KM12 colon
# NCI-H460 lung = tested on: NCI-H460 lung
# CAKI-1 renal = tested on: CAKI-1 renal
# HOP-18 NSCLC = tested on: HOP-18 NSCLC
# DMS 114 small cell lung = tested on: DMS 114 small cell lung
# A498 renal = tested on: A498 renal
# HOP-92 NSCLC = tested on: HOP-92 NSCLC
# MALME-3M melanoma = tested on: MALME-3M melanoma
# OVCAR-3 ovarian = tested on: OVCAR-3 ovarian
# NCI-H522 lung = tested on: NCI-H522 lung
# SF-295 CNS = tested on: SF-295 CNS
# SK-MEL-2 melanoma = tested on: SK-MEL-2 melanoma
smiles,measurement,setting,value
CN(C)CCNC(=O)c1ccccc1Nc1c(Cl)cccc1Cl,TGI,SK-OV-3 ovarian,26.8 µM
same,TGI,ACHN renal,21 µM
same,TGI,HT29 colon,20 µM
same,TGI,XF 498 CNS,22 µM
same,TGI,CCRF-CEM leukemia,30.4 µM
same,TGI,SNB-19 CNS,29.9 µM
same,TGI,SNB-78 CNS,33.8 µM
same,TGI,MOLT-4 leukemia,29.2 µM
same,TGI,M19-MEL melanoma,24.5 µM
same,TGI,SR leukemia,30.9 µM
same,TGI,SF-268 CNS,31.5 µM
same,TGI,UACC-62 melanoma,31.4 µM
same,TGI,SK-MEL-5 melanoma,9.96 µM
same,TGI,NCI-H23 lung,30.9 µM
same,TGI,SW-620 colon,30.2 µM
same,TGI,OVCAR-5 ovarian,22.2 µM
same,TGI,UO-31 renal,17.2 µM
same,TGI,SK-MEL-28 melanoma,28.2 µM
same,TGI,HCT-116 colon,20.6 µM
same,TGI,OVCAR-8 ovarian,27.8 µM
same,TGI,COLO 205 colon,25.8 µM
same,TGI,K-562 leukemia,36.2 µM
same,TGI,DMS 273 small cell lung,30.5 µM
same,TGI,786-0 renal,18.9 µM
same,TGI,SN12C renal,28.7 µM
same,TGI,SF-539 CNS,26.7 µM
same,TGI,DLD-1 colon,37.1 µM
same,TGI,LOX IMVI melanoma,25.8 µM
same,TGI,HCT-15 colon,27.9 µM
same,TGI,RPMI-8226 leukemia,29.1 µM
same,TGI,KM20L2 colon,23.4 µM
same,TGI,EKVX NSCLC,21.6 µM
same,TGI,SNB-75 CNS,9.52 µM
same,TGI,NCI-H226 lung,29.4 µM
same,TGI,TK-10 renal,20.7 µM
same,TGI,LXFL 529 NSCLC,32.4 µM
same,TGI,UACC-257 melanoma,18.5 µM
same,TGI,U251 CNS,23.9 µM
same,TGI,HCC-2998 colon,23.7 µM
same,TGI,IGROV1 ovarian,36.3 µM
same,TGI,HL-60(TB) leukemia,27 µM
same,TGI,A549 NSCLC,25.3 µM
same,TGI,OVCAR-4 ovarian,29.7 µM
same,TGI,RXF 393 renal,10.8 µM
same,TGI,M14 melanoma,31 µM
same,TGI,HOP-62 NSCLC,27.2 µM
C=C(c1ccccc1)[C@@]1(O)CCCC[C@H]1NC(c1ccccc1)c1ccccc1,TGI,SK-OV-3 ovarian,44.2 µM
same,TGI,ACHN renal,23.9 µM
same,TGI,HT29 colon,27.3 µM
same,TGI,KM12 colon,30.9 µM
same,TGI,CCRF-CEM leukemia,18.7 µM
same,TGI,SNB-19 CNS,36.7 µM
same,TGI,SNB-78 CNS,50.7 µM
same,TGI,MOLT-4 leukemia,8.24 µM
same,TGI,M19-MEL melanoma,28.3 µM
same,TGI,NCI-H460 lung,28 µM
same,TGI,SR leukemia,6.98 µM
same,TGI,SF-268 CNS,27.6 µM
same,TGI,UACC-62 melanoma,27.8 µM
same,TGI,SK-MEL-5 melanoma,22.8 µM
same,TGI,CAKI-1 renal,21.4 µM
same,TGI,HOP-18 NSCLC,35.4 µM
same,TGI,NCI-H23 lung,28.7 µM
same,TGI,SW-620 colon,32.8 µM
same,TGI,OVCAR-5 ovarian,27 µM
same,TGI,DMS 114 small cell lung,22.3 µM
same,TGI,UO-31 renal,27.6 µM
same,TGI,A498 renal,27.7 µM
same,TGI,SK-MEL-28 melanoma,30.2 µM
same,TGI,HCT-116 colon,20.5 µM
same,TGI,OVCAR-8 ovarian,28.1 µM
same,TGI,COLO 205 colon,28 µM
same,TGI,K-562 leukemia,29.1 µM
same,TGI,HOP-92 NSCLC,26.1 µM
same,TGI,DMS 273 small cell lung,27.1 µM
same,TGI,786-0 renal,25.5 µM
same,TGI,SN12C renal,29 µM
same,TGI,SF-539 CNS,32.7 µM
same,TGI,DLD-1 colon,31.9 µM
same,TGI,LOX IMVI melanoma,21.9 µM
same,TGI,HCT-15 colon,24.5 µM
same,TGI,RPMI-8226 leukemia,25.5 µM
same,TGI,KM20L2 colon,43.5 µM
same,TGI,EKVX NSCLC,43.7 µM
same,TGI,SNB-75 CNS,63.6 µM
same,TGI,MALME-3M melanoma,30.7 µM
same,TGI,OVCAR-3 ovarian,24.7 µM
same,TGI,NCI-H226 lung,22.6 µM
same,TGI,TK-10 renal,32.5 µM
same,TGI,LXFL 529 NSCLC,23.9 µM
same,TGI,UACC-257 melanoma,25.1 µM
same,TGI,U251 CNS,24.5 µM
same,TGI,HCC-2998 colon,26.1 µM
same,TGI,NCI-H522 lung,21.6 µM
same,TGI,IGROV1 ovarian,42.4 µM
same,TGI,SF-295 CNS,25.1 µM
same,TGI,HL-60(TB) leukemia,5.95 µM
same,TGI,A549 NSCLC,26.2 µM
same,TGI,OVCAR-4 ovarian,34.5 µM
same,TGI,RXF 393 renal,22.7 µM
same,TGI,SK-MEL-2 melanoma,27.4 µM
same,TGI,M14 melanoma,27.6 µM
same,TGI,HOP-62 NSCLC,31 µM
